# Assays:
# Format in all cases: in vivo
# [1] = tested on: Amaranthus tamariscinus (common waterhemp, AMATA), PPO resistant biotype 1 (w.2); assay: greenhouse experiment, weed control, PPO resistant biotype 1 (w.2); details: for activity on sensitive and resistant weeds (in words): summary of table 2: sensitive (w.1) and resistant weeds (w.2, w.3); for Weed control (%) w.2: scale 0 to 100
# Description: (§1) The culture containers used were plastic flowerpots containing loamy sand with approximately 3.0% of humus as the substrate. The seeds of the test plants were sown separately for each species and/or resistant biotype. For the pre-emergence treatment, the active ingredients, which had been suspended or emulsified in water, were applied directly after sowing by means of finely distributing nozzles. The containers were irrigated gently to promote germination and growth and subsequently covered with transparent plastic hoods until the plants had rooted. This cover caused uniform germination of the test plants, unless this had been impaired by the active ingredients. For the post-emergence treatment, the test plants were first grown to a height of 3 to 15 cm, depending on the plant habit, and only then treated with the active ingredients which had been suspended or emulsified in water. For this purpose, the test plants were either sown directly and grown in the same containers, or they were first grown separately as seedlings and transplanted into the test containers a few days prior to treatment. Depending on the species, the plants were kept at 10-25° C. or 20-35° C., respectively. The test period extended over 2 to 4 weeks. During this time, the plants were tended, and their response to the individual treatments was evaluated. The evaluation was carried out by using a scale from 0 to 100. 100 means no emergence of the plants or complete destruction of at least the above-ground parts, and 0 means no damage, or normal course of growth.
# (§2) The plants used in a first greenhouse experiment were of the following species and biotype: […]
# [2] = tested on: Amaranthus tamariscinus (common waterhemp, AMATA), PPO resistant biotype 2 (w.3); assay: greenhouse experiment, weed control, PPO resistant biotype 2 (w.3); details: scale 0 to 100
# Description: as §1, §2
# [3] = tested on: Amaranthus tamariscinus (common waterhemp, AMATA), sensitive biotype (w.1); assay: greenhouse experiment, weed control, sensitive common waterhemp (w.1)
# Description: as §1, §2
# [4] = tested on: Amaranthus tamariscinus (common waterhemp, AMATA), PPO resistant biotype 3 containing the ΔG210 mutation (w.5); assay: another greenhouse experiment, weed control, PPO resistant biotype 3 (w.5)
# Description: as §1, with “100 means no emergence of the plants or complete destruction of at least the above-ground parts, and 0 means no damage, or normal course of growth.” left out
# [5] = tested on: Amaranthus tamariscinus (common waterhemp, AMATA), PPO resistant biotype 4 containing the ΔG210 mutation (w.6); assay: another greenhouse experiment, weed control, PPO resistant biotype 4 (w.6); details: use rate 4 g/ha; scale 0 to 100
# Description: as §1, with “100 means no emergence of the plants or complete destruction of at least the above-ground parts, and 0 means no damage, or normal course of growth.” left out
# [6] = tested on: Amaranthus tamariscinus (common waterhemp, AMATA), sensitive biotype (w.4); assay: another greenhouse experiment, weed control, sensitive common waterhemp (w.4); details: use rate 4 g/ha; scale 0 to 100
# Description: as §1, with “100 means no emergence of the plants or complete destruction of at least the above-ground parts, and 0 means no damage, or normal course of growth.” left out
# [7] = use rate 2 g/ha, scale 0 to 100
# [8] = use rate 4 g/ha, scale 0 to 100 (100 = complete destruction, 0 = no damage)
SMILES,activity on sensitive and resistant weeds (in words) [1],Weed control (%) w.2 ([1]; use rate 2 g/ha) [%],Weed control (%) w.2 ([1]; use rate 4 g/ha) [%],Weed control (%) w.3 ([2]; use rate 2 g/ha) [%],Weed control (%) w.3 ([2]; use rate 4 g/ha) [%],"Weed control (%) w.1 [3, 7] [%]","Weed control (%) w.1 [3, 8] [%]","activity on sensitive and resistant weeds (in words) ([4]; summary of table 3: sensitive (w.4) and resistant weeds (w.5, w.6) containing the ΔG210 mutation)","Weed control (%) w.5 ([4]; use rate 4 g/ha, scale 0 to 100) [%]",Weed control (%) w.6 [5] [%],Weed control (%) w.4 [6] [%]
"C#CCOc1cc(-n2nc3n(c2=O)CCCC3)c(Cl)cc1Cl [azafenidin, reference compound]",much weaker control of resistant in comparison to sensitive biotypes,67,73,70,72,95,98,,,,
"COC(=O)CCNC(=O)C(C)Sc1cc(-n2c(=O)cc(C(F)(F)F)n(C)c2=O)c(F)cc1Cl (stereo not drawn) [(I).1, tiafenacil]","very good activity on both sensitive (w.1) and resistant weeds (w.2, w.3)",83,91,78,85,90,99,"very good activity on both sensitive (w.4) and resistant weeds (w.5, w.6)",95,88,92

# — patent US11723365B2, “Method for controlling PPO resistant weeds” (BASF SE, priority 2016, dated 2023)
